# In US11298344B2, “Composition for inhibiting sodium leak channel (NALCN), comprising n-benzhydryl quinuclidine derivatives” (Research & Business Foundation Sungkyunkwan University, priority 2018, dated 2022):
# Key:
# Type in all cases: cell-based
# NALCN [1] = biological target: T1, NALCN (Rattus norvegicus, UniProt Q6Q760); assay: Patch-clamp of HEK293T cells transfected with M3R and NALCN, CCh-induced inward current; conditions: for compound concentration which decreases half of a NALCN current (rank order): CCh-induced current; for inhibitory effect on a CCh-induced NALCN current: FIG. 6; for activation of NALCN by CCh in the presence of the compound: compound present before CCh
# T1 construct: expressed in transfected cells; host or cells: HEK293T
# Experimental: (§1) HEK293T cells were cultured in a DMEM ([…]) medium containing 10% FBS and 1% antibiotics using an incubator having a condition of 37° C. and 5% CO2. NALCN and TRPC cDNAs were respectively constructed using a vector that expresses GFP under an independent promoter. Lipofectamine 2000, which is used as a transfection reagent, was mixed with each plasmid and the cells were treated with the mixture. Then, after 48 hours, expression was identified. In order to identify whether normal transfection with each plasmid occurred, only the cells in which GFP was expressed were selected.
# (§2) The HEK293T cells were transfected with combinations of M3R and NALCN, M3R and GFP, and M3R and TRPCs.
# Among the transfected HEK293T cells acquired in Experimental Method 2, cells expressing GFP were selected, and a patch pipette formed of a thin glass tube was inserted into a membrane surface. After setting −80 mV as a holding potential, a current was measured. Under the holding potential, treatment with carbachol (CCh) which is an activator of M3R was performed to identify a current induced by NALCN. An extracellular solution was treated with 50 μM of L703606, and change of current caused by CCh was identified. In addition, based on voltage-independent characteristics of NALCN, currents obtained by varying the voltage from −80 mV to +10 mV were measured, and change of current caused by the treatment with L703606 was recorded. All data were presented as mean±standard deviation calculated after treatment with an inhibitor relative to a control (** P<0.01).
# HEK293T cells are non-neuronal cells commonly used for transfection of genes. Based on the report that a NALCN channel is activated by M3R in pancreatic beta cells MIN6 and HEK293 cells, M3R and NALCN plasmids that had been cloned from rat brain were co-transfected into HEK293T cells to identify whether L703606 inhibits a NALCN current activated by M3R.
# NALCN [2] = biological target: T2, NALCN (Mus musculus, UniProt Q8BXR5); assay: Patch-clamp of isolated midbrain dopaminergic neurons (background and NT-induced currents, membrane voltage)
# T2 construct: from tissue; host or cells: acutely isolated dopaminergic neurons of mouse substantia nigra pars compacta (TH-GFP mice)
# Experimental: In order to obtain midbrain dopaminergic neurons from mice, substantia nigra pars compacta within mouse midbrain in which GFP was expressed due to tyrosine hydroxylase (TH) promoter was cut into sections. In order to isolate tissue, the sections were subjected to treatment with a highly-concentrated glucose solution at 36.5° C. which contains papain (4 U ml-1) for 20 minutes or longer. The enzymatically-treated sections of substantia nigra pars compacta were washed with a highly-concentrated glucose solution, and then slowly agitated using Pasteur pipettes with various size holes so that the respective dopaminergic neurons were isolated. All animal experiments were conducted under approval of the Institutional Animal Care and Use Committee (IACUC) of Sungkyunkwan University School of Medicine.
# Among the dopaminergic neurons isolated in Experimental Method 1, dopaminergic neurons expressing GFP were selected, and a patch pipette formed of thin glass tube was inserted into a membrane surface. After setting −60 mV as a holding potential, a current was measured. A background current was identified under the holding voltage. After treatment with NT, a current was identified. Then, additionally, an extracellular solution was treated with 10 μM of L703606, and change of current was identified. In addition, the above procedure was repeated by replacing sodium ion with N-methyl-D-glucamine (NMDG). After treating the extracellular solution with 0.5 μM of tetrodotoxin (TTX) and 30 μM of ZD7288 which are a voltage-gated sodium channel inhibitor and an HCN channel inhibitor, respectively, a voltage was measured. Additionally, change of voltage at the time of treatment with 10 μM of L703606 was identified. All data were presented as mean±standard deviation calculated at the time of treatment with the inhibitors and replacement of sodium ion, relative to a control. (* P<0.05, ** P<0.01, *** P<0.001).
# In addition, it was possible to identify that at the time of replacing sodium with NMDG, the background current was close to 0 pA, and an inward current was not induced by the treatment with NT. From this, it can be seen that the background current is generated by sodium ions.
# [3] = system: transient receptor potential canonical (TRPC) 3, 4, 5, 6, or 7 channel; assay: Patch-clamp of HEK293T cells transfected with M3R and a TRPC channel, CCh-induced inward current; conditions: holding potential −60 mV, second CCh stimulus, Na+ and K+ removed, cesium added
# Experimental: as §1, §2
# From the above, it was possible to identify NALCN inhibitory effects of the NBQN derivatives. Furthermore, in the present example, it was intended to identify whether the NBQN derivatives have specific and exclusive inhibitory activity against NALCN. […]
# [4] = holding potential −60 mV, 10 μM of L703606
# [5] = holding potential −60 mV, 20 μM of PP1
# T1 sequence (Q6Q760 whole entry): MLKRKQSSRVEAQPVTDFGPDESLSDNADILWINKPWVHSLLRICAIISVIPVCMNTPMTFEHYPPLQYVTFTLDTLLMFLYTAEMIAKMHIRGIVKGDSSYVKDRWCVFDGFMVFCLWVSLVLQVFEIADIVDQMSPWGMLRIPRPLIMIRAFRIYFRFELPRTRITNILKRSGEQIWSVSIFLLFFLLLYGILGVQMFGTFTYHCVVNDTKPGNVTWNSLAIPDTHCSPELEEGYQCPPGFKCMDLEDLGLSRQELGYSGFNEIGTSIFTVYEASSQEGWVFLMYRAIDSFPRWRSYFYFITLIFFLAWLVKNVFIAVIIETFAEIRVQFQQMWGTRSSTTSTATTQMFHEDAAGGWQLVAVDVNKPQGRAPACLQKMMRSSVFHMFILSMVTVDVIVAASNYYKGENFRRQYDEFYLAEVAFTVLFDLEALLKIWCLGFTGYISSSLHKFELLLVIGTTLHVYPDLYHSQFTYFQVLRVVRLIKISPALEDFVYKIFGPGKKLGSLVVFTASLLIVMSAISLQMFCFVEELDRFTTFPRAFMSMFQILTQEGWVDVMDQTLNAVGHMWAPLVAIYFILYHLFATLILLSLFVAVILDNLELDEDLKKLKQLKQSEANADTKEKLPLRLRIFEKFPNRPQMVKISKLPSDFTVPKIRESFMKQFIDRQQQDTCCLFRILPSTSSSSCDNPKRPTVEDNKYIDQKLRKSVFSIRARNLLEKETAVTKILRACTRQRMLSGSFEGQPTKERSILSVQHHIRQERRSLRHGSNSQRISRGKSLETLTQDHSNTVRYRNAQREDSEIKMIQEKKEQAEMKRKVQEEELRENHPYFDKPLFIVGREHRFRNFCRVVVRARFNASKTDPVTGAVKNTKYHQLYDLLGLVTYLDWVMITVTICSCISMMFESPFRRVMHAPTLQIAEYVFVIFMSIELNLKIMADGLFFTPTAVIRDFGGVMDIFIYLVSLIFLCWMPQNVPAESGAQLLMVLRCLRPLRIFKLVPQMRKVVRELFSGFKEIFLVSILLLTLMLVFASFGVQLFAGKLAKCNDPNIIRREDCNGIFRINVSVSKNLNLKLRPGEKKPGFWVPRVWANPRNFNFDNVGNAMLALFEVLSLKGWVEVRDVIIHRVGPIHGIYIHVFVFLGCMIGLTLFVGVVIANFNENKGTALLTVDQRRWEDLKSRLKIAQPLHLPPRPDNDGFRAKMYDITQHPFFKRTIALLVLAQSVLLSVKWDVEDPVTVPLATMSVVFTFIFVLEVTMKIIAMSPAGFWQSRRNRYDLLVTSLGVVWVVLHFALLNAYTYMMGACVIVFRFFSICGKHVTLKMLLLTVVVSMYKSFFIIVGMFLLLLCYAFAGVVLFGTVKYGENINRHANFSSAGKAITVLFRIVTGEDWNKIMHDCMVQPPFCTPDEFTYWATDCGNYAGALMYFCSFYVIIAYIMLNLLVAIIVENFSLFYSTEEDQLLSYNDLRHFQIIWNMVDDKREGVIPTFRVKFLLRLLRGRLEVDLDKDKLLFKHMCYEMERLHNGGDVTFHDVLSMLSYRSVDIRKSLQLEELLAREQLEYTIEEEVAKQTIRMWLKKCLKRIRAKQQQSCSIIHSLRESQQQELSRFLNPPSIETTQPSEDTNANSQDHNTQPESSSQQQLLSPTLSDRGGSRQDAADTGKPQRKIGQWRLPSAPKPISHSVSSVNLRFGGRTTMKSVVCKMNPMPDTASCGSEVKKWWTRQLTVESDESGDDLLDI
compound,measurement,setting,value
"COc1ccccc1CNC1C2CCN(CC2)C1C(c1ccccc1)c1ccccc1 (centres unmarked) [CP96345, 2-(Diphenylmethyl)-N-(2-methoxybenzyl)quinuclidin-3-amine]",compound concentration which decreases half of a NALCN current (rank order),NALCN [1]; M3R-NALCN HEK293T cells,next highest inhibitory effects
same,inhibitory effect on a CCh-induced NALCN current,NALCN [1]; M3R-NALCN HEK293T cells,inhibit a CCh-induced NALCN current in a similar fashion
"COc1ccccc1CN[C@H]1CCCN[C@H]1c1ccccc1 [CP99994, (2S,3S)-N-[(2-methoxyphenyl)methyl]-2-phenylpiperidin-3-amine]",inhibitory effect on a CCh-induced NALCN current,NALCN [1]; M3R-NALCN HEK293T cells,insignificant inhibitory effect
"Ic1ccccc1CNC1C2CCN(CC2)C1C(c1ccccc1)c1ccccc1 (centres unmarked) [L703606, 2-(Diphenylmethyl)-N-(2-iodobenzyl)quinuclidin-3-amine]",inhibition at 50 µM,"NALCN [1]; HEK-293T, cells that co-express M3R-NALCN, holding potential −80 mV, 50 μM of L703606",≥ 90%
same,"CCh-induced inward current in the presence of PP1, after treatment with L703606",NALCN [1]; M3R-NALCN HEK293T cells,returning to the background current again immediately
same,compound concentration which decreases half of a NALCN current (rank order),NALCN [1]; M3R-NALCN HEK293T cells,highest inhibitory effect
same,inhibitory effect on a CCh-induced NALCN current,NALCN [1]; M3R-NALCN HEK293T cells,inhibit a CCh-induced NALCN current in a similar fashion
same,activation of NALCN by CCh in the presence of the compound,NALCN [1]; M3R-NALCN HEK293T cells,not possible to observe activation of NALCN
same,CCh-induced NALCN current where voltage is changed,NALCN [1]; voltage from −80 mV to +10 mV,decreased to a control level
same,spontaneous activity voltage,NALCN [2]; 10 μM of L703606,completely inhibited
same,background current,NALCN [2]; [4],decreased
same,inward current induced by NT,NALCN [2]; [4],not induced
same,membrane potential,"NALCN [2]; spontaneous activity stopped by 0.5 μM TTX and 30 μM ZD7288, 10 μM of L703606",induced hyperpolarization of membrane potential
"COc1ccc(C(C)(C)C)cc1CN[C@H]1C2CCN(CC2)[C@H]1C(c1ccccc1)c1ccccc1 [Maropitant, (2S,3S)-2-(Diphenylmethyl)-N-[2-methoxy-5-(2-methyl-2-propanyl)benzyl]quinuclidin-3-amine]",compound concentration which decreases half of a NALCN current (rank order),NALCN [1]; M3R-NALCN HEK293T cells,next highest inhibitory effects
same,inhibitory effect on a CCh-induced NALCN current,NALCN [1]; M3R-NALCN HEK293T cells,inhibit a CCh-induced NALCN current in a similar fashion
Cc1ccc(-c2nn(C(C)(C)C)c3ncnc(N)c23)cc1 [PP1],activation of NALCN by CCh in the presence of the compound,NALCN [1]; M3R-NALCN HEK293T cells,strong inward current induced by activation of NALCN
same,inhibition of the CCh-induced inward current,"NALCN [1]; cells that co-express M3R-NALCN, treatment with PP1",did not greatly inhibit
same,background current,NALCN [2]; [5],little effect on the background current
same,inward current induced by NT stimulus,NALCN [2]; [5],remarkably decreased
COc1ccc(CCCOC(Cn2ccnc2)c2ccc(OC)cc2)cc1 (centres unmarked) [SKF96365],CCh-induced inward current (TRPC current activated by M3R),[3],not created at all
